Measured values reported in patent publication US20260078120A1, “SUBSTITUTED PYRIDOPYRIMIDINONES” (MIRATI THERAPEUTICS, INC., priority 2022, published 2026).
Read-outs that look alike come from different tables or passages of the source.

How the values were obtained:
[1] = system: T47D (PI3Kα H1047R mutant) cells; test: CellTiter-Glo 2.0 luminescent cell viability assay, 72 hours, T47D cells; format: cell-based
Experimental: This Example illustrates that exemplary compounds of the present invention decrease the viability of cells.
(§1) The ability of a compound of Formula (I) to decrease the viability of cells was measured using CellTiter-Glo 2.0 (CTG) Luminescent Cell Viability Assay (#G9241) obtained from Promega (Madison, WI).
To prepare assay plates for viability assays, cells were trypsinized, resuspended in fresh media, and viable cells were counted utilizing trypan blue exclusion. T47D, SKBR3, or MKN1 cells were seeded at 1000 cells in 30 μl per well in a solid white flat bottom 384 cell culture plate (Perkin Elmer #6007680) and incubated at 37° C. overnight.
(§2) Assay day 1, cells were dosed using an Echo Liquid Handler (Beckman Coulter) with compounds at a 10 um starting concentration and serially diluted (1:4) for a total of 10 concentrations. Cells were incubated for approximately 72 hours with the compounds (solubilized in DMSO) at 37° C. After 72 hours of treatment, cell plates were equilibrated to room temperature before adding 15 μl of CTG to each well, plates were then covered in aluminum foil to protect from light, incubated at room temperature for 30 minutes on a microtiter plate shaker, and luminescence readings were collected using a CLARIOstar microplate reader (BMG Labtech, Germany). Percent of vehicle control values were plotted as log (inhibitor) vs. response-Variable slope (four parameters) for curve fitting and IC50 values were determined using XLfit.

[2] = system: SKBR3 (PI3Kα wild type) cells; test: CellTiter-Glo 2.0 luminescent cell viability assay, 72 hours, SKBR3 cells; format: cell-based; settings: Homo sapiens, SK-BR-3, 72 h
Experimental: as §1
To prepare assay plates for viability assays, cells were trypsinized, resuspended in fresh media, and viable cells were counted utilizing trypan blue exclusion.
as §2

[3] = Homo sapiens, T47D, 72 h, T47D (PI3Kα H1047R mutant) cells, CellTiter-Glo, approximately 72 hours, read-out: T47D (H1047R mutant) Viability IC50
[4] = SKBR3 (PI3Kα wild type) cells, CellTiter-Glo, approximately 72 hours, read-out: SKBR3 (WT) Viability IC50
[5] = T47D (PI3Kα H1047R mutant) cells, CellTiter-Glo, approximately 72 hours, read-out: T47D (H1047R mutant) Viability IC50

Cc1cc([C@@H](C)Nc2ccccc2C(=O)O)c2nc(N3C4CCC3CC(c3ccnn3C)C4)c(C)c(=O)n2c1 (stereo partly drawn) [Example 10-2, 2-(((1R)-1-(3,7-dimethyl-2-(3-(1-methyl-1H-pyrazol-5-yl)-8-azabicyclo[3.2.1]octan-8-yl)-4-oxo-4H-pyrido[1,2-a]pyrimidin-9-yl)ethyl)amino)benzoic acid]
IC50 ([1]; Homo sapiens, T47D, 72 h, read-out: T47D (H1047R mutant) Viability IC50 (nM)): 4.72 nM
IC50 ([2]; read-out: SKBR3 (WT) Viability IC50 (nM)): > 10000 nM

Cc1cc([C@@H](C)Nc2ccccc2C(=O)O)c2nc(N3CCC(N4CCCCC4=O)CC3)c(C)c(=O)n2c1 [Example 10-3, (R)-2-((1-(3,7-dimethyl-4-oxo-2-(2-oxo-[1,4′-bipiperidin]-1′-yl)-4H-pyrido[1,2-a]pyrimidin-9-yl)ethyl)amino)benzoic acid]
IC50 [1, 3]: 8.12 nM
IC50 [2, 4]: > 10000 nM

CCOCC1CCN(c2nc3c([C@@H](C)Nc4ccccc4C(=O)O)cc(C)cn3c(=O)c2C)CC1 [Example 10-4, (R)-2-((1-(2-(4-(ethoxymethyl)piperidin-1-yl)-3,7-dimethyl-4-oxo-4H-pyrido[1,2-a]pyrimidin-9-yl)ethyl)amino)benzoic acid]
IC50 [1, 3]: 12.3 nM
IC50 [2, 4]: > 10000 nM

Cc1cc([C@@H](C)Nc2ccccc2C(=O)O)c2nc(N3CCN(C(=O)CC4CC4)CC3)c(C)c(=O)n2c1 [Example 10-6, (R)-2-((1-(2-(4-(2-cyclopropylacetyl)piperazin-1-yl)-3,7-dimethyl-4-oxo-4H-pyrido[1,2-a]pyrimidin-9-yl)ethyl)amino)benzoic acid]
IC50 [1, 3]: 15 nM
IC50 [2, 4]: > 10000 nM

Cc1cc([C@@H](C)Nc2ccccc2C(=O)O)c2nc(N3CCc4ccccc4C3)c(C)c(=O)n2c1 [Example 10-7, (R)-2-((1-(2-(3,4-dihydroisoquinolin-2(1H)-yl)-3,7-dimethyl-4-oxo-4H-pyrido[1,2-a]pyrimidin-9-yl)ethyl)amino)benzoic acid]
IC50 [1, 3]: 16.9 nM
IC50 [2, 4]: > 10000 nM

Cc1cc([C@@H](C)Nc2ccccc2C(=O)O)c2nc(N3CCCC4(CCC4O)C3)c(C)c(=O)n2c1 (stereo partly drawn) [Example 10-8, 2-(((1R)-1-(2-(1-hydroxy-6-azaspiro[3.5]nonan-6-yl)-3,7-dimethyl-4-oxo-4H-pyrido[1,2-a]pyrimidin-9-yl)ethyl)amino)benzoic acid]
IC50 [1, 3]: 24.2 nM
IC50 [2, 4]: > 10000 nM

Cc1cc([C@@H](C)Nc2ccccc2C(=O)O)c2nc(N3CCC(c4ccncc4)C3)c(C)c(=O)n2c1 (stereo partly drawn) [Example 10-9, 2-(((1R)-1-(3,7-dimethyl-4-oxo-2-(3-(pyridin-4-yl)pyrrolidin-1-yl)-4H-pyrido[1,2-a]pyrimidin-9-yl)ethyl)amino)benzoic acid]
IC50 [1, 3]: 24.8 nM
IC50 [2, 4]: > 10000 nM

Cc1cnn(C2CCN(c3nc4c([C@@H](C)Nc5ccccc5C(=O)O)cc(C)cn4c(=O)c3C)CC2)c1 [Example 10-16, (R)-2-((1-(3,7-dimethyl-2-(4-(4-methyl-1H-pyrazol-1-yl)piperidin-1-yl)-4-oxo-4H-pyrido[1,2-a]pyrimidin-9-yl)ethyl)amino)benzoic acid]
IC50 [1, 3]: 37.3 nM
IC50 [2, 4]: > 10000 nM

Cc1cc([C@@H](C)Nc2ccc(C)nc2C(=O)O)c2nc(N3CCC(F)(F)CC3)c(C#N)c(=O)n2c1 [Example 10-17, (R)-3-((1-(3-cyano-2-(4,4-difluoropiperidin-1-yl)-7-methyl-4-oxo-4H-pyrido[1,2-a]pyrimidin-9-yl)ethyl)amino)-6-methylpicolinic acid]
IC50 [1, 3]: 38.4 nM
IC50 [2, 4]: > 10000 nM

C[C@@H](Nc1ccccc1C(=O)O)c1cc(Cl)cn2c(=O)c(C#N)c(N3CCC(F)(F)CC3)nc12 [Example 10-26, (R)-2-((1-(7-chloro-3-cyano-2-(4,4-difluoropiperidin-1-yl)-4-oxo-4H-pyrido[1,2-a]pyrimidin-9-yl)ethyl)amino)benzoic acid]
IC50 [1, 3]: 50.5 nM
IC50 [2, 4]: > 10000 nM

CO[C@@H]1CCN(c2nc3c([C@@H](C)Nc4ccccc4C(=O)O)cc(C)cn3c(=O)c2C)CC1(F)F [Example 10-28, 2-(((R)-1-(2-((R)-3,3-difluoro-4-methoxypiperidin-1-yl)-3,7-dimethyl-4-oxo-4H-pyrido[1,2-a]pyrimidin-9-yl)ethyl)amino)benzoic acid]
IC50 [1, 3]: 53 nM
IC50 [2, 4]: > 10000 nM

CCc1cc([C@@H](C)Nc2ccccc2C(=O)O)c2nc(N3CCC(F)(F)CC3)c(C#N)c(=O)n2c1 [Example 10-46, (R)-2-((1-(3-cyano-2-(4,4-difluoropiperidin-1-yl)-7-ethyl-4-oxo-4H-pyrido[1,2-a]pyrimidin-9-yl)ethyl)amino)benzoic acid]
IC50 [1, 3]: 65 nM
IC50 [2, 4]: > 10000 nM

C[C@@H](Nc1ccccc1C(=O)O)c1cc(C2CC2)cn2c(=O)c(C#N)c(N3CCC(F)(F)CC3)nc12 [Example 10-83, (R)-2-((1-(3-cyano-7-cyclopropyl-2-(4,4-difluoropiperidin-1-yl)-4-oxo-4H-pyrido[1,2-a]pyrimidin-9-yl)ethyl)amino)benzoic acid]
IC50 [1, 3]: 78.7 nM
IC50 [2, 4]: > 10000 nM

Cc1cc([C@@H](C)Nc2ccccc2C(=O)O)c2nc(N3CCC(n4ccc(C(F)(F)F)n4)CC3)c(C)c(=O)n2c1 [Example 10-104, (R)-2-((1-(3,7-dimethyl-4-oxo-2-(4-(3-(trifluoromethyl)-1H-pyrazol-1-yl)piperidin-1-yl)-4H-pyrido[1,2-a]pyrimidin-9-yl)ethyl)amino)benzoic acid]
IC50 [1, 3]: 87.8 nM
IC50 [2, 4]: > 10000 nM

Cc1cc([C@@H](C)Nc2ccc(F)nc2C(=O)O)c2nc(N3CCC(F)(F)CC3)c(C)c(=O)n2c1 [Example 10-105, (R)-3-((1-(2-(4,4-difluoropiperidin-1-yl)-3,7-dimethyl-4-oxo-4H-pyrido[1,2-a]pyrimidin-9-yl)ethyl)amino)-6-fluoropicolinic acid]
IC50 [1, 5]: 89.4 nM
IC50 [2, 4]: > 10000 nM

Cc1cc([C@@H](C)Nc2cccnc2C(=O)O)c2nc(N3CCC(F)(F)CC3)c(C#N)c(=O)n2c1 [Example 10-121, (R)-3-((1-(3-cyano-2-(4,4-difluoropiperidin-1-yl)-7-methyl-4-oxo-4H-pyrido[1,2-a]pyrimidin-9-yl)ethyl)amino)picolinic acid]
IC50 [1, 3]: 103 nM
IC50 [2, 4]: > 10000 nM

Cc1cc([C@@H](C)Nc2ccccc2C(=O)O)c2nc(N3Cc4ccc(C(F)F)cc4C3)c(C)c(=O)n2c1 [Example 10-128, (R)-2-((1-(2-(5-(difluoromethyl)isoindolin-2-yl)-3,7-dimethyl-4-oxo-4H-pyrido[1,2-a]pyrimidin-9-yl)ethyl)amino)benzoic acid]
IC50 [1, 3]: 43.2 nM
IC50 [2, 4]: > 10000 nM

CNS(=O)(=O)c1ccc(N2CCN(c3nc4c([C@@H](C)Nc5ccccc5C(=O)O)cc(C)cn4c(=O)c3C)CC2)cc1 [Example 10-129, (R)-2-((1-(3,7-dimethyl-2-(4-(4-(N-methylsulfamoyl)phenyl)piperazin-1-yl)-4-oxo-4H-pyrido[1,2-a]pyrimidin-9-yl)ethyl)amino)benzoic acid]
IC50 [1, 3]: 46.7 nM
IC50 [2, 4]: > 10000 nM

Cc1cc([C@@H](C)Nc2ccccc2C(=O)O)c2nc(N3CCC4(CCOC4)CC3)c(C)c(=O)n2c1 [Example 10-130, (R)-2-((1-(3,7-dimethyl-4-oxo-2-(2-oxa-8-azaspiro[4.5]decan-8-yl)-4H-pyrido[1,2-a]pyrimidin-9-yl)ethyl)amino)benzoic acid]
IC50 [1, 5]: 46.9 nM
IC50 [2, 4]: > 10000 nM

Cc1cc([C@@H](C)Nc2ccccc2C(=O)O)c2nc(N3CCN(Cc4cccnc4)CC3C)c(C)c(=O)n2c1 (stereo partly drawn) [Example 10-132, 2-(((1R)-1-(3,7-dimethyl-2-(2-methyl-4-(pyridin-3-ylmethyl)piperazin-1-yl)-4-oxo-4H-pyrido[1,2-a]pyrimidin-9-yl)ethyl)amino)benzoic acid]
IC50 [1, 3]: 51 nM
IC50 [2, 4]: > 10000 nM

Cc1cc([C@@H](C)Nc2ccccc2C(=O)O)c2nc(N3CC4C5CCC(CC5)C4C3)c(C)c(=O)n2c1 (stereo partly drawn) [Example 10-133, 2-(((1R)-1-(3,7-dimethyl-2-(octahydro-2H-4,7-ethanoisoindol-2-yl)-4-oxo-4H-pyrido[1,2-a]pyrimidin-9-yl)ethyl)amino)benzoic acid]
IC50 [1, 3]: 55.4 nM
IC50 [2, 4]: > 10000 nM

Cc1cc(C(C)Nc2cccc(F)c2C(=O)O)c2nc(N3Cc4ccccc4C3)c(C)c(=O)n2c1 (centres unmarked) [Example 11-368, 2-fluoro-6-((1-(2-(isoindolin-2-yl)-3,7-dimethyl-4-oxo-4H-pyrido[1,2-a]pyrimidin-9-yl)ethyl)amino)benzoic acid]
IC50 [1, 3]: 856 nM

Cc1cc(C(C)Nc2ccccc2C(=O)O)c2nc(N3CCN(C)C(=O)C3)cc(=O)n2c1 (centres unmarked) [Example 11-384, 2-((1-(7-methyl-2-(4-methyl-3-oxopiperazin-1-yl)-4-oxo-4H-pyrido[1,2-a]pyrimidin-9-yl)ethyl)amino)benzoic acid]
IC50 [1, 3]: > 10000 nM
